Data on three molecules can be found in article PMC8406801, “Naringenin Inhibits Platelet Activation and Arterial Thrombosis Through Inhibition of Phosphoinositide 3-Kinase and Cyclic Nucleotide Signaling” (Frontiers in Pharmacology, 2021).

Data set [1] concerns Akt Ser473 phosphorylation. In words: Ex vivo immunoblotting of phospho-Akt (Ser473) in ADP-stimulated PRP of treated rats. Further details: species or system rat. The conditions noted are these: clopidogrel group, ex vivo; Figure 8C. How it is done: (§1) Male SD rats were randomly divided into 5 groups with 6 rats in each group. […] Sixty minutes after the last sample treatment, blood was drawn from the abdominal aorta of rats into the siliconized vacutainers containing 1:9 (v/v) 3.8% sodium citrate. The collected blood was centrifuged at 100 × g for 10 min at room temperature to obtain PRP. […] The platelet counts of PRP were adjusted to 4×10^8 cells/mL using PPP. PRP was incubated for 5 min at 37°C and then stimulated by ADP (5 μM). The maximum platelet aggregation rate was determined as mentioned above.
(§2) For in vitro platelet aggregation, aliquots of washed platelets were preincubated with vehicle or various concentrations of naringenin for 5 min and stimulated with ADP (10 μmol/L) under stirring at 37°C for 5 min. For ex vivo platelet aggregation, PRP was incubated at 37°C for 5 min and stimulated with ADP (5 μmol/L) under stirring at 37 °C. The platelet aggregation was terminated by adding ethylenediaminetetraacetic acid (EDTA; 10 mM). Total protein was prepared using RIPA lysis buffer and protein content was determined by bicinchoninic acid (BCA) protein assay kit. Equal amounts of platelet proteins (30 μg) were separated on 10% SDS polyacrylamide gel electrophoresis (SDS-PAGE) and then transferred to poly vinylidene difluoride (PVDF) membranes and subjected to western blot. Blots were blocked with TBS-Tween 20 containing 5% BSA and probed with primary antibodies diluted in blocking solution at 4°C overnight followed by incubation with the corresponding HRP secondary antibodies. The protein bands were visualized using enhanced chemiluminescence (ECL).
(§3) Blood was collected and PRP was obtained after the last treatment. Platelet aggregation was induced by ADP (5 μmol/L) (A). Data are expressed as means ± SD (n = 6). After ADP stimulation, platelet proteins were then extracted and analyzed by immunoblotting using PI3Kp110β antibody (B) and phospho-specific antibodies such as Akt^Ser473 (C), Akt^Thr308 (D) and ERK1/2^Thr202/Tyr204 (E). Total level of GAPDH was measured on each sample as a loading control. The blots shown are representative of three separate experiments. The relative protein expression levels were quantified by ImageJ 1.47v software. The level of relative protein expression obtained with vehicle control was taken as 1. R represents the level of relative protein expression in resting platelets. Data are expressed as means ± SD (n = 3). *p < 0.05, **p < 0.01, ***p < 0.001 compared with the vehicle control group (Con).
(§4) To further investigate the antiplatelet mechanisms of naringenin ex vivo, several signaling molecules such as PI3Kp110β, Akt and ERK were detected. After oral administration of naringenin (200, 400, and 800 mg/kg) to rats for 7 days, rat PRP was prepared and stimulated by ADP (5 μmol/L), and platelets were lysed to determine protein phosphorylation levels using western blot.
Background: Immunoblotting shows a protein as a band on a membrane.

The test system of data set [2] is carotid arterial thrombus. In words: FeCl3-induced carotid arterial thrombus model in rats. The data set is classed as in vivo, rat. To be noted: oral 7.875 mg/kg for 7 days. How it is done: To determine the effects of naringenin on thrombogenesis, a FeCl3-induced carotid arterial thrombus model was performed as reported previously with some modifications ([Eckly et al., 2011]). […] The rats were anaesthetized using 1% pentobarbital sodium salt and fixed supinely after the last administration. The left carotid artery was exposed and thrombosis was induced by applying a Whatman filter paper (5 mm × 1 mm) saturated with 10% (w/v) FeCl3 on the top of the left carotid artery for 5 min. […] Time to occlusion of the carotid artery was defined as a blood flow of 0 ml/min for 3 min. […] At the end of the experiment, the left carotid artery was dissected. A haematoxylin and eosin stain was performed on the artery.

Data set [3] deals with Akt Thr308 phosphorylation. Description: Ex vivo immunoblotting of phospho-Akt (Thr308) in ADP-stimulated PRP of treated rats. The conditions noted are these: clopidogrel group, ex vivo; Figure 8D. Further details: species or system rat. How it is done: as §1, §2, §3, §4
Data set [4] has as its system PI3Kp110β. In words: Ex vivo immunoblotting of PI3Kp110β in ADP-stimulated PRP of treated rats. Further details: species or system rat. To be noted: clopidogrel group, ex vivo; Figure 8B. How it is done: as §1, §2, §3, §4
Data set [5] deals with tail bleeding. To be noted: mouse, in vivo, po, 11.375 mg/kg. How it is done:
Sixty minutes after the last administration, mice were anaesthetized with 1% pentobarbital sodium salt and placed on a 37°C heating pad. The tail was transected at a site 3 mm proximal to the tip and immediately immersed into saline kept at 37°C. The time to bleeding cessation (defined as no bleeding for 30 s) was measured. When the bleeding time lasted longer than 10 min, the bleeding was stopped, and the bleeding time was recorded as 10 min.

Data set [6] relates to washed rat platelets. Description: ADP (10 μM)-induced aggregation of washed rat platelets. The data set is classed as cell-based.
For data set [7], the system named is Akt Ser473 phosphorylation. Description: Immunoblotting of phospho-Akt (Ser473) in ADP-stimulated washed platelets. The data set is classed as cell-based, rat. The conditions noted are these: Figure 5B: ADP 10 μM, LY294002 5 μM alone, single replicates. How it is done:
as §2
FIGURE 4 Naringenin inhibits PI3K-mediated signaling in ADP-induced platelets. Washed rat platelets were preincubated without or with naringenin at 37°C for 5 min, and then stimulated with ADP (10 μmol/L) under stirring for 5 min. Platelet proteins were then extracted and analyzed by immunoblotting using PI3Kp110β antibody (A) and phospho-specific antibodies such as Akt^Ser473 (B), Akt^Thr308 (C), ERK1/2^Thr202/Tyr204 (D) and GSK3β^Ser9 (E). Total level of GAPDH was measured on each sample as a loading control. The blots shown are representative of three separate experiments. The relative protein expression levels were quantified by ImageJ 1.47v software. The level of relative protein expression obtained with vehicle control (0 μM) was taken as 1. R represents the level of relative protein expression in resting platelets. Data are expressed as means ± SD (n = 3). *p < 0.05, **p < 0.01, ***p < 0.001 compared with the vehicle control group.
FIGURE 5 Effects of naringenin combined with PI3K pan inhibitor LY294002 on platelet aggregation and Akt phosphorylation. Washed rat platelets were preincubated with naringenin (200 μmol/L) alone, the PI3K pan inhibitor LY294002 (5 μmol/L) alone or both for 5 min prior to ADP (10 μmol/L) activation. After stimulation with ADP, platelet aggregation was quantified and expressed as a percentage (A). Data are expressed as means ± SD (n = 6). ***p < 0.001 compared with the ADP-treated group, ^### p < 0.001 compared with naringenin alone or LY294002 alone. Platelet proteins were then extracted and specific antibodies were used to measure the level of total and phosphorylated Akt (B). The blots shown are representative of three separate experiments. The relative protein expression levels were quantified by ImageJ 1.47v software. The level of phosphorylation obtained in the ADP-treated group was taken as 1. Data are expressed as means ± SD (n = 3). ***p < 0.001 compared with the ADP-treated group, ^### p < 0.001 compared with naringenin alone or LY294002 alone.

Data set [8] has as its system washed rat platelets. In words: ADP (10 μM)-induced aggregation of washed rat platelets. The data set is classed as cell-based. To be noted: inhibitor 30 μmol/L preincubation, naringenin 200 μmol/L, ADP 10 μmol/L. How it is done:
Platelet-rich plasma (PRP) was obtained, and after the addition of 100 ng/ml PGE1, platelets were pelleted at 900 × g for 10 min. […] Washed platelets were preincubated with vehicle (0.4% dimethyl sulfoxide) or various concentrations of naringenin in the presence of 2 mM CaCl2 for 5 min at 37°C, and then further stimulated by ADP (10 μM), thrombin (0.2 U/mL) or collagen (2 μg/ml). The maximum platelet aggregation rate was detected within 5 min with continuous stirring.
Platelet aggregation was induced by ADP using washed platelets and PRP. Washed platelets were preincubated with vehicle (containing 0.4% DMSO) or different doses (100, 200, 400, and 800 μM) of naringenin or naringin for 5 min before activation with ADP (10 μM) for 5 min.
FIGURE 1 Effects of naringenin and naringin on platelet aggregation. Chemical structure of naringin (A) and naringenin (B). The effects of naringin (C) or naringenin (D) on PRP were measured following stimulation with 10 μmol/L ADP. Rat washed platelet aggregation performed with or without different concentrations of naringin (E) or naringenin (F) was recorded after stimulation with 10 μmol/L ADP. Similarly, Washed platelet aggregation performed with vehicle or various concentrations of naringenin was recorded after stimulation with 0.2 U/mL thrombin (G) or 2 μg/ml collagen (H). WP represents washed platelets. Data are expressed as means ± SD (n = 6), the level of aggregation obtained at 5 min with vehicle-treated samples (0 μM) was taken as 100%. *p < 0.05, **p < 0.01, ***p < 0.001 compared with the vehicle control group.

The test system of data set [9] is VASP Ser239 phosphorylation. Description: Immunoblotting of phospho-VASP (Ser239) in ADP-stimulated washed platelets, with or without PKA, PKG, PKC inhibitors. The conditions noted are these: inhibitor 30 μmol/L before treatment with naringenin, ADP 10 μmol/L. The data set is classed as cell-based, rat. How it is done:
as §2
VASP is a substrate for cAMP- and cGMP- dependent protein kinases, which mediate cAMP- and cGMP-dependent inhibitory signaling in platelets, respectively. Increased cAMP levels followed by the activation of cAMP-dependent protein kinase A (PKA) phosphorylates VASP at position Ser157, whereas the elevation of cGMP leads to VASP phosphorylation at position Ser239 by cGMP-dependent protein kinase G (PKG) ([Aszódi et al., 1999]; [Li et al., 2003a]). To further examine whether naringenin modulates cAMP- or cGMP-mediated inhibitory signaling, the phosphorylation of VASP (Ser157 and Ser239) in washed platelets on stimulation with ADP were measured in the absence or presence of naringenin (100, 200, 400, and 800 μM). […] To further confirm the antiplatelet effects of naringenin through PKA-dependent signaling, the effects of naringenin on platelet aggregation were measured in the presence of PKG inhibitor (Rp-8-Br-PET-cGMPS) and PKA inhibitor (H89).
FIGURE 7 Naringenin promotes VASP phosphorylation. The effects of naringenin on phosphorylation of VASP (at positions Ser 157 and Ser239) were measured in washed platelets upon stimulation with ADP (10 μmol/L) by western blotting (A). The blots shown are representative of three separate experiments. The phosphorylation levels were quantified by ImageJ 1.47v software. The level of phosphorylation obtained with vehicle control (0 μM) was taken as 1 (B,C). R represents the phosphorylation level in resting platelets. Data are expressed as means ± SD (n = 3). *p < 0.05, ***p < 0.001 compared with the vehicle control group. VASP phosphorylation at Ser239 was also analyzed in washed platelets incubated with 5 μmol/L PKA (H89), 30 μmol/L PKG (Rp-8-Br-PET-cGMPS), or 5 μmol/L PKC (GF109203X) inhibitors before treatment with naringenin (D). Washed platelets were incubated with vehicle or naringenin (200 μmol/L) at 37°C in the presence or absence of 5 μmol/L PKA (H89) or 30 μmol/L PKG (Rp-8-Br-PET-cGMPS) inhibitors. After treatment, platelets were stimulated with ADP (10 μmol/L) to trigger aggregation (E). Data are expressed as means ± SD (n = 6). ***p < 0.001 compared with the ADP-treated group, ^# p < 0.05, ^### p < 0.001 compared with naringenin alone or H89 alone.

Values joined by “and” are separate entries in the source; they are usually repeats but may differ in a detail not shown here. Equal values may be shown once. Where a name gives a salt, the structure may show the parent alone.

As to `COC(=O)[C@H](c1ccccc1Cl)N1CCc2sccc2C1` [Clopidogrel, clopidogrel, reference compound], in data set [1], the “p-Akt Ser473 / t-Akt (Fold to Control)” value is 0.1574 and 0.1140 and 0.1683; the “p-Akt Ser473 / t-Akt (raw data)” value is 0.1750 and 0.1267 and 0.1870. In addition, the “vessel occlusion time of rats” value in data set [2] is listed as “considerably delayed”. For the same molecule, the “Occlusion time” value in data set [2] (10% FeCl3, single animals, no occlusion within 20 min recorded as 20 min, 7.875 mg/kg) was 18.3 min and 20.0 min. Moreover, in data set [3], the “p-Akt Thr308 / t-Akt (Fold to Control)” value was 0.3303 and 0.3457 and 0.2827; the “p-Akt Thr308 / t-Akt (raw data)” value is 0.2780 and 0.2909 and 0.2379. Also, in data set [4], the “PI3Kp110β / GAPDH (Fold to Control)” value is 0.8304 and 0.8095 and 1.1247; the “PI3Kp110β / GAPDH (raw data)” value is 0.4069 and 0.3966 and 0.5511. Moreover, the “effect on tail bleeding time” value in data set [5] was “markedly extended”.

Take `O=c1cc(N2CCOCC2)oc2c(-c3ccccc3)cccc12` [LY294002, reference compound]: the “Aggregation (%)” value in data set [6] (Figure 5A: washed platelets, ADP 10 μM, LY294002 5 μM alone, single replicates) was 47.5% and 35.4% and 37.3% and 29.8% and 45.4% and 28.0%. In addition, the “p-Akt Ser473 / t-Akt” value in data set [7] (raw data) was 0.3729 and 0.2624 and 0.3579. Also, in [7], the “p-Akt Ser473 / t-Akt (Fold to ADP only)” value was 0.4284 Fold to ADP only and 0.3015 Fold to ADP only and 0.4113 Fold to ADP only.

As for `O=c1c2nc(Br)n([C@@H]3O[C@@H]4CO[P@@](O)(=S)O[C@H]4[C@H]3O)c2nc2[nH]c(-c3ccccc3)cn12` [Rp-8-Br-PET-cGMPS, Rp-8-Bromo-β-phenyl-1, N2-ethenoguanosine 3´, 5´-cyclic mono-phosphorothioate sodium salt], the “platelet aggregation when incubated with naringenin after kinase inhibitor” value in data set [8] is listed as “did not affect the final extent of platelet aggregation”. In addition, the “naringenin-induced phosphorylation of VASP at Ser239 after kinase inhibitor” value in [9] is “only small changes”. The “Aggregation (%)” value in [6] (Rp-8-Br-PET-cGMPS (30 μM)+ADP (10 μM), Figure 7E) is 67.3% and 69.8% and 64.5% and 66.3% and 65.0% and 70.4%.
